Results reported in patent US10004701B2, “Methods and compositions for treating infection” (UNIVERSITY OF ROCHESTER, priority 2012, dated 2018).
Where a name gives a salt, the structure may show the parent alone. Read-outs that look alike come from different tables or passages of the source.

Legend:
Test in all cases: AK assay 384-well format, Prestwick library screening
[1] = test system: A. baumannii strain 98-37-09; type: cell-based, Acinetobacter baumannii; details: 50 μM final drug concentration; for fold induction at 50 µM: Acinetobacter baumannii, 983709, 3 h
[2] = test system: S. aureus strain USA300-0114; type: cell-based, Staphylococcus aureus; details: 50 μM final drug concentration; for fold induction at 50 µM: Staphylococcus aureus, USA300, 3 h
K. pneumoniae = type: cell-based, Klebsiella pneumoniae; details: 50 μM final drug concentration; for fold induction at 50 µM: Klebsiella pneumoniae, 3 h
E. cloacae = type: cell-based, Enterobacter cloacae; details: 50 μM final drug concentration; for fold induction at 50 µM: Enterobacter cloacae, 3 h
E. faecium = type: cell-based, Enterococcus faecium; details: 50 μM final drug concentration; for fold induction at 50 µM: Enterococcus faecium, 3 h
P. aeruginosa = type: cell-based, Pseudomonas aeruginosa; details: 50 μM final drug concentration; for fold induction at 50 µM: Pseudomonas aeruginosa, 3 h
E. coli = type: cell-based, Escherichia coli; details: 50 μM final drug concentration; for fold induction at 50 µM: Escherichia coli, 3 h
[3] = planktonic A. baumannii, cutoff for positive-scoring molecules 3-fold increase, read-out: AK-based Prestwick Library Screening Results, A. baumannii (increase in extracellular AK activity)
[4] = planktonic S. aureus, cutoff for positive-scoring molecules 3-fold increase, read-out: AK-based Prestwick Library Screening Results, S. aureus (increase in extracellular AK activity)
[5] = planktonic K. pneumoniae, cutoff for positive-scoring molecules 3-fold increase, read-out: AK-based Prestwick Library Screening Results, K. pneumoniae (increase in extracellular AK activity)
[6] = planktonic E. cloacae, cutoff for positive-scoring molecules 3-fold increase, read-out: AK-based Prestwick Library Screening Results, E. cloacae (increase in extracellular AK activity)
[7] = planktonic E. faecium, cutoff for positive-scoring molecules 3-fold increase, read-out: AK-based Prestwick Library Screening Results, E. faecium (increase in extracellular AK activity)
[8] = planktonic P. aeruginosa, cutoff for positive-scoring molecules 3-fold increase, read-out: AK-based Prestwick Library Screening Results, P. aeruginosa (increase in extracellular AK activity)
[9] = planktonic E. coli, cutoff for positive-scoring molecules 3-fold increase, read-out: AK-based Prestwick Library Screening Results, E. coli (increase in extracellular AK activity)
[10] = planktonic, cutoff for positive 3-fold increase

Compound: CC/C(=C(\c1ccccc1)c1ccc(OCCN(C)C)cc1)c1ccccc1 [Tamoxifen citrate]
- fold induction at 50 µM ([1]; planktonic A. baumannii, 384-well, cutoff for positive-scoring molecules 3-fold increase, read-out: AK-based Prestwick Library Screening Results: A. baumannii (increase in extracellular AK activity)): 6.6
- fold induction at 50 µM ([2]; planktonic S. aureus, 384-well, cutoff for positive-scoring molecules 3-fold increase, read-out: AK-based Prestwick Library Screening Results: S. aureus (increase in extracellular AK activity)): 2.1
- fold induction at 50 µM (K. pneumoniae; planktonic K. pneumoniae, 384-well, cutoff for positive-scoring molecules 3-fold increase, read-out: AK-based Prestwick Library Screening Results: K. pneumoniae (increase in extracellular AK activity)): 2.1
- fold induction at 50 µM (E. cloacae; planktonic E. cloacae, 384-well, cutoff for positive-scoring molecules 3-fold increase, read-out: AK-based Prestwick Library Screening Results: E. cloacae (increase in extracellular AK activity)): 1.3
- fold induction at 50 µM (E. faecium; planktonic E. faecium, 384-well, cutoff for positive-scoring molecules 3-fold increase, read-out: AK-based Prestwick Library Screening Results: E. faecium (increase in extracellular AK activity)): 4
- fold induction at 50 µM (P. aeruginosa; planktonic P. aeruginosa, 384-well, cutoff for positive-scoring molecules 3-fold increase, read-out: AK-based Prestwick Library Screening Results: P. aeruginosa (increase in extracellular AK activity)): 1.4
- fold induction at 50 µM (E. coli; planktonic E. coli, 384-well, cutoff for positive-scoring molecules 3-fold increase, read-out: AK-based Prestwick Library Screening Results: E. coli (increase in extracellular AK activity)): 1.9

Compound: CC(=O)N(CC(O)CO)c1c(I)c(C(=O)NCC(O)CO)c(I)c(C(=O)NCC(O)CO)c1I (centres unmarked) [Iohexol]
- fold induction at 50 µM [1, 3]: 0.9
- fold induction at 50 µM [2, 4]: 0.7
- fold induction at 50 µM (K. pneumoniae; [5]): 0.7
- fold induction at 50 µM (E. cloacae; [6]): 1.1
- fold induction at 50 µM (E. faecium; [7]): 0.9
- fold induction at 50 µM (P. aeruginosa; [8]): 0.8
- fold induction at 50 µM (E. coli; [9]): 1

Compound: CCCc1cc(=O)[nH]c(=S)[nH]1 [Propylthiouracil]
- fold induction at 50 µM [1, 3]: 0.8
- fold induction at 50 µM [2, 4]: 0.7
- fold induction at 50 µM (K. pneumoniae; [5]): 0.6
- fold induction at 50 µM (E. cloacae; [6]): 1.1
- fold induction at 50 µM (E. faecium; [7]): 1
- fold induction at 50 µM (P. aeruginosa; [8]): 0.7
- fold induction at 50 µM (E. coli; [9]): 0.7

Compound: Cc1cccc(C)c1NC(=O)CN1CCN(CCCC(c2ccc(F)cc2)c2ccc(F)cc2)CC1 [Lidoflazine]
- fold induction at 50 µM ([1]; planktonic, cutoff for positive 3-fold increase, read-out: AK-based Prestwick Library Screening Results, A. baumannii (fold increase in extracellular AK activity)): 2.9
- fold induction at 50 µM ([2]; planktonic, cutoff for positive 3-fold increase, read-out: AK-based Prestwick Library Screening Results, S. aureus (fold increase in extracellular AK activity)): 1.4
- fold induction at 50 µM (K. pneumoniae; planktonic, cutoff for positive 3-fold increase, read-out: AK-based Prestwick Library Screening Results, K. pneumoniae (fold increase in extracellular AK activity)): 1.1
- fold induction at 50 µM (E. cloacae; planktonic, cutoff for positive 3-fold increase, read-out: AK-based Prestwick Library Screening Results, E. cloacae (fold increase in extracellular AK activity)): 1.4
- fold induction at 50 µM (E. faecium; planktonic, cutoff for positive 3-fold increase, read-out: AK-based Prestwick Library Screening Results, E. faecium (fold increase in extracellular AK activity)): 1
- fold induction at 50 µM (P. aeruginosa; planktonic, cutoff for positive 3-fold increase, read-out: AK-based Prestwick Library Screening Results, P. aeruginosa (fold increase in extracellular AK activity)): 1.3
- fold induction at 50 µM (E. coli; planktonic, cutoff for positive 3-fold increase, read-out: AK-based Prestwick Library Screening Results, E. coli (fold increase in extracellular AK activity)): 1.4

Compound: CC(C[N+](C)(C)C)OC(N)=O (centres unmarked) [Bethanechol chloride]
- fold induction at 50 µM ([1]; planktonic A. baumannii, positive cutoff 3-fold increase, read-out: AK-based Prestwick library screening result, A. baumannii (fold increase in extracellular AK activity)): 0.8
- fold induction at 50 µM ([2]; planktonic S. aureus, positive cutoff 3-fold increase, read-out: AK-based Prestwick library screening result, S. aureus (fold increase in extracellular AK activity)): 0.7
- fold induction at 50 µM (K. pneumoniae; planktonic K. pneumoniae, positive cutoff 3-fold increase, read-out: AK-based Prestwick library screening result, K. pneumoniae (fold increase in extracellular AK activity)): 0.7
- fold induction at 50 µM (E. cloacae; planktonic E. cloacae, positive cutoff 3-fold increase, read-out: AK-based Prestwick library screening result, E. cloacae (fold increase in extracellular AK activity)): 0.9
- fold induction at 50 µM (E. faecium; planktonic E. faecium, positive cutoff 3-fold increase, read-out: AK-based Prestwick library screening result, E. faecium (fold increase in extracellular AK activity)): 0.9
- fold induction at 50 µM (P. aeruginosa; planktonic P. aeruginosa, positive cutoff 3-fold increase, read-out: AK-based Prestwick library screening result, P. aeruginosa (fold increase in extracellular AK activity)): 0.7
- fold induction at 50 µM (E. coli; planktonic E. coli, positive cutoff 3-fold increase, read-out: AK-based Prestwick library screening result, E. coli (fold increase in extracellular AK activity)): 1

Compound: NC(N)=Nc1nc(CSCCC(N)=NS(N)(=O)=O)cs1 [Famotidine]
- fold induction at 50 µM ([1]; 384-well format, cutoff for positive-scoring molecules 3-fold increase, read-out: AK-based Prestwick Library Screening Results, A. baumannii (increase in extracellular AK activity)): 0.8
- fold induction at 50 µM ([2]; 384-well format, cutoff for positive-scoring molecules 3-fold increase, read-out: AK-based Prestwick Library Screening Results, S. aureus (increase in extracellular AK activity)): 0.5
- fold induction at 50 µM (K. pneumoniae; 384-well format, cutoff for positive-scoring molecules 3-fold increase, read-out: AK-based Prestwick Library Screening Results, K. pneumoniae (increase in extracellular AK activity)): 0.8
- fold induction at 50 µM (E. cloacae; 384-well format, cutoff for positive-scoring molecules 3-fold increase, read-out: AK-based Prestwick Library Screening Results, E. cloacae (increase in extracellular AK activity)): 1
- fold induction at 50 µM (E. faecium; 384-well format, cutoff for positive-scoring molecules 3-fold increase, read-out: AK-based Prestwick Library Screening Results, E. faecium (increase in extracellular AK activity)): 0.8
- fold induction at 50 µM (P. aeruginosa; 384-well format, cutoff for positive-scoring molecules 3-fold increase, read-out: AK-based Prestwick Library Screening Results, P. aeruginosa (increase in extracellular AK activity)): 0.8
- fold induction at 50 µM (E. coli; 384-well format, cutoff for positive-scoring molecules 3-fold increase, read-out: AK-based Prestwick Library Screening Results, E. coli (increase in extracellular AK activity)): 0.9

Compound: COc1c2occc2cc2ccc(=O)oc12 [Methoxy-8-psoralen]
- AK-based Prestwick Library Screening Results, A. baumannii (fold increase in extracellular AK activity) [1, 10]: 1.0
- AK-based Prestwick Library Screening Results, S. aureus (fold increase in extracellular AK activity) [2, 10]: 1.0
- AK-based Prestwick Library Screening Results, K. pneumoniae (fold increase in extracellular AK activity) (K. pneumoniae; [10]): 0.9
- AK-based Prestwick Library Screening Results, E. cloacae (fold increase in extracellular AK activity) (E. cloacae; [10]): 1.5
- AK-based Prestwick Library Screening Results, E. faecium (fold increase in extracellular AK activity) (E. faecium; [10]): 1.1
- AK-based Prestwick Library Screening Results, P. aeruginosa (fold increase in extracellular AK activity) (P. aeruginosa; [10]): 1.0
- AK-based Prestwick Library Screening Results, E. coli (fold increase in extracellular AK activity) (E. coli; [10]): 1.1

Compound: C=C(NC(=O)C(=C)NC(=O)c1csc(C2=N[C@@H]3c4csc(n4)[C@H]4NC(=O)c5csc(n5)[C@H]([C@](C)(O)[C@@H](C)O)NC(=O)[C@H]5CSC(=N5)/C(=C/C)NC(=O)[C@H]([C@@H](C)O)NC(=O)c5csc(n5)[C@]3(CC2)NC(=O)[C@H](C)NC(=O)C(=C)NC(=O)[C@H](C)NC(=O)[C@H]([C@@H](C)CC)N[C@@H]2C=Cc3c([C@H](C)O)cc(nc3[C@H]2O)C(=O)O[C@@H]4C)n1)C(N)=O [Thiostrepton]
- fold induction at 50 µM ([1]; planktonic, […], read-out: AK-based Prestwick Library Screening Results, A. baumannii (fold increase in extracellular AK activity)): 1.1
- fold induction at 50 µM ([2]; planktonic, […], read-out: AK-based Prestwick Library Screening Results, S. aureus (fold increase in extracellular AK activity)): 0.4
- fold induction at 50 µM (K. pneumoniae; planktonic, […], read-out: AK-based Prestwick Library Screening Results, K. pneumoniae (fold increase in extracellular AK activity)): 1
- fold induction at 50 µM (E. cloacae; planktonic, […], read-out: AK-based Prestwick Library Screening Results, E. cloacae (fold increase in extracellular AK activity)): 1.4
- fold induction at 50 µM (E. faecium; planktonic, […], read-out: AK-based Prestwick Library Screening Results, E. faecium (fold increase in extracellular AK activity)): 1
- fold induction at 50 µM (P. aeruginosa; planktonic, […], read-out: AK-based Prestwick Library Screening Results, P. aeruginosa (fold increase in extracellular AK activity)): 0.9
- fold induction at 50 µM (E. coli; planktonic, […], read-out: AK-based Prestwick Library Screening Results, E. coli (fold increase in extracellular AK activity)): 1.3
